Activity calls are given as the source filed them.
Columns and labels:
Caov-3 cell line = assay: Growth inhibition of human Caov3 cells incubated for 48 hrs by MTT assay; assay type: functional, cell-based
Homo sapiens = species on record: Homo sapiens; assay: Growth inhibition of human ES2 cells incubated for 48 hrs by MTT assay; assay type: functional
Caov-4 = assay: Growth inhibition of human Caov4 cells incubated for 48 hrs by MTT assay; assay type: functional, cell-based

Measured: growth inhibition (GI)

Sc1ccccc1COCc1cn(-c2c(Cl)cc(Cl)cc2Cl)nn1
active: all assays above
